The values that follow come from US20250129088A1, “CEREBLON E3 UBIQUITIN LIGASE INHIBITOR” (Gan & Lee Pharmaceuticals Co., Ltd., priority 2022, published 2025).

Holding throughout (assay type): cell-based
One experiment deals with A549 cells. Kind of experiment: A549 cell proliferation inhibition, CCK-8. Particulars: Homo sapiens, 96 h, A549, 4 days. On the procedure: The complete medium required for A549 cells is F-12K (ATCC, Product number: 30-2004) basal medium containing 10% fetal bovine serum. A549 cells were seeded in a 96-well plate at a density of 2,800 cells/well, and the next day, different concentrations of the compound of the present invention and a positive control sample Ceritinib (source: Bide Pharmaceuticals) were prepared to treat the cells. The cells were incubated at 37° C., 5% CO2 cell incubator for 4 days. Cell viability was detected using the CCK-8 kit (Beyotime, Product number: C0040) according to the manufacturer's instructions. According to the inhibition rate, the GraphPad Prism software was used to calculate the IC50 value of each compound for 4 days, and the results are shown in Table 3.

In the next experiment the test system is HeLa cells. Kind of experiment: HeLa cell proliferation inhibition, CCK-8. Particulars: Homo sapiens, 72 h, 3 days. Here is the method:
The complete medium required for HeLa cells is DMEM high glucose (Gibco, Product number: 11995-065) basal medium containing 10% fetal bovine serum. HeLa cells were seeded in a 96-well plate at a density of 4,000 cells/well, and the next day, different concentrations of the compound of the present invention and the positive control sample Ceritinib (source: Bide Pharmaceuticals) were prepared to treat the cells. The cells were incubated at 37° C., 5% CO2 cell culture incubator for 3 days. Cell viability was detected using the CCK-8 kit (Beyotime, Product number: C0040) according to the manufacturer's instructions. According to the inhibition rate, GraphPad Prism software was used to calculate the IC50 value of each compound for 3 days, and the results are shown in Table 2.

Another experiment concerns T-47D cells. Kind of experiment: T-47D cell proliferation inhibition, CCK-8. Particulars: Homo sapiens, T47D, 144 h, 6 days. Here is the method: The complete medium required for T-47D cells is 1640 (ATCC, Product number: A10491-01) basal medium containing 10% fetal bovine serum. T-47D cells were seeded in a 96-well plate at a density of 3,000/well, and different concentrations of the compound of the present invention and the positive control sample ARV-471 (source: Innochem) were prepared to treat the cells. The cells were incubated at 37° C., 5% for 6 days in a CO2 cell incubator. Cell viability was detected using the CCK-8 kit (Beyotime, Product number: C0040) according to the manufacturer's instructions. According to the inhibition rate, the GraphPadPrism software was used to calculate the IC50 value of each compound for 6 days, and the results are shown in Table 17.

The subject of a further experiment is MCF-7 cells. Kind of experiment: MCF-7 cell proliferation inhibition, CCK-8. Particulars: Homo sapiens, MCF7, 216 h, MCF-7, 9 days. On the procedure:
The complete medium required for MCF-7 cells is DMEM (gibco, Product number: 11995-065) basal medium containing 10% fetal bovine serum. MCF-7 cells were seeded in a 96-well plate at a density of 800/well, and different concentrations of the compound of the present invention and the positive control sample ARV-471 (source: Enochem) were prepared to treat the cells. The cells were incubated at 37° C., 5% 9 days in a CO2 cell incubator. Cell viability was detected using the CCK-8 kit (Beyotime, Product number: C0040) according to the manufacturer's instructions. According to the inhibition rate, GraphPadPrism software was used to calculate the IC50 value of each compound for 9 days, and the results are shown in Table 18.

Broadly, the IC50 is the concentration that gives 50% inhibition. High values mean weaker potency in that assay, low ones greater potency in that assay. For the compound `Cc1cc(Nc2ncc(Cl)c(Nc3ccccc3S(=O)(=O)C(C)C)n2)c(OC(C)C)cc1C1CCN(CCOCCC(=O)N2CC3(CCc4cc5c(cc4O3)CN(C3CCC(=O)NC3=O)C5=O)C2)CC1` (stereo not drawn) [PROTAC 27, 3-(1-(3-(2-(4-(4-((5-chloro-4-((2-(isopropylsulfonyl)phenyl)amino)pyrimidin-2-yl)amino)-5-isopropoxy-2-methylphenyl)piperidin-1-yl)ethoxy)propionyl)-6′-oxo-3′,4′,6′,8′-tetrahydro-7′H-spiro[azetidine-3,2′-pyrano[2,3-f]isoindole]-7′-yl)piperidine-2,6-dione], the IC50 in the experiment with A549 cells is 11400 nM; with HeLa cells it was 4270 nM.
On to `Cc1cc(Nc2ncc(Cl)c(Nc3ccccc3S(=O)(=O)C(C)C)n2)c(OC(C)C)cc1C1CCN(CCOCCC(=O)N2CC3(CCc4cc5c(cc4O3)C(=O)N(C3CCC(=O)NC3=O)C5)C2)CC1` (stereo not drawn) [PROTAC 28, 3-(1-(3-(2-(4-(4-((5-chloro-4-((2-(isopropylsulfonyl)phenyl)amino)pyrimidin-2-yl)amino)-5-isopropoxy-2-methylphenyl)piperidin-1-yl)ethoxy)propionyl)-8′-oxo-3′,4′,6′,8′-tetrahydro-7′H-spiro[azetidine-3,2′-pyrano[2,3-f]isoindole]-7′-yl)piperidine-2,6-dione], for which the IC50 with A549 cells is 6810 nM; with HeLa cells it was 4360 nM.
The like results for `Cc1cc(Nc2ncc(Cl)c(Nc3ccccc3S(=O)(=O)C(C)C)n2)c(OC(C)C)cc1C1CCN(CCOCCC(=O)N2CCC3(CCc4cc5c(cc4O3)C(=O)N(C3CCC(=O)NC3=O)C5=O)CC2)CC1` (stereo not drawn) [PROTAC 29, 1-(3-(2-(4-(4-((5-chloro-4-((2-(isopropylsulfonyl)phenyl)amino)pyrimidin-2-yl)amino)-5-isopropoxy-2-methylphenyl)piperidin-1-yl)ethoxy)propionyl)-7′-(2,6-dioxopiperidin-3-yl)-3′,4′-dihydro-6′H-spiro[piperidine-4,2′-pyrano[2,3-f]isoindole]-6′,8′(7′H)-dione] were, in that order, 4340 nM and 5410 nM.
For `Cc1cc(Nc2ncc(Cl)c(Nc3ccccc3S(=O)(=O)C(C)C)n2)c(OC(C)C)cc1C1CCN(CCOCCC(=O)N2CCC3(CC2)COc2cc4c(cc2C3)C(=O)N(C2CCC(=O)NC2=O)C4=O)CC1` (stereo not drawn) [PROTAC 30, 1-(3-(2-(4-(4-((5-chloro-4-((2-(isopropylsulfonyl)phenyl)amino)pyrimidin-2-yl)amino)-5-isopropoxy-2-methylphenyl)piperidin-1-yl)ethoxy)propionyl)-7′-(2,6-dioxopiperidin-3-yl)-2′H-spiro[piperidine-4,3′-pyrano[2,3-f]isoindole]-6′,8′(4′H,7′H)-dione], in that order: 4380 nM and 3090 nM.
As to `Cc1cc(Nc2ncc(Cl)c(Nc3ccccc3S(=O)(=O)C(C)C)n2)c(OC(C)C)cc1C1CCN(CCOCCC(=O)N2CCC3(CC2)COc2cc4c(cc23)C(=O)N(C2CCC(=O)NC2=O)C4=O)CC1` (stereo not drawn) [PROTAC 31, 1′-(3-(2-(4-(4-((5-chloro-4-((2-(isopropylsulfonyl)phenyl)amino)pyrimidin-2-yl)amino)-5-isopropoxy-2-methylphenyl)piperidin-1-yl)ethoxy)propionyl)-6-(2,6-dioxopiperidin-3-yl)-6-hydrogen-2H,5H-spiro[furo[2,3-f]isoindole-3,4′-piperidine]-5,7-dione], the values for the IC50 in the experiment on A549 cells and in the experiment on HeLa cells were 10200 nM and 4650 nM, respectively.
With `O=C1CCC(N2Cc3cc4c(cc3C2=O)CCC2(CN(C3CCC5(CC3)CCN(c3ccc([C@@H]6c7ccc(O)cc7CC[C@@H]6c6ccccc6)cc3)CC5)C2)O4)C(=O)N1` (stereo partly drawn) [PROTAC 52, 3-(1-(3-(4-((1R,2S)-6-hydroxy-2-phenyl-1,2,3,4-tetrahydronaphthalen-1-yl)phenyl)-3-azaspiro [5.5]undec-9-yl)-6′-oxo-3′,4′,6′,8′-tetrahydro-7′H-spiro[azetidine-3,2′-pyrano[2,3]isoindol]-7′-yl)piperidine-2,6-dione], the figures for the IC50 with T-47D cells and with MCF-7 cells were 9.2 nM and 30 nM, respectively.
For `O=C1CCC(N2Cc3cc4c(cc3C2=O)OC2(CC4)CN(C3CCC4(CC3)CN(c3ccc([C@@H]5c6ccc(O)cc6CC[C@@H]5c5ccccc5)cc3)C4)C2)C(=O)N1` (stereo partly drawn) [PROTAC 53, 3-(1-(2-(4-((1R,2S)-6-hydroxy-2-phenyl-1,2,3,4-tetrahydronaphthalen-1-yl)phenyl)-2-azaspiro [3.5]non-7-yl)-8′-oxo-3′,4′,6′,8′-tetrahydro-7′H-spiro[azetidine-3,2′-pyrano[2,3]isoindol]-7′-yl]piperidine-2,6-dione], in that order: 2.9 nM and 90 nM.
The like results for `O=C1CCC(N2C(=O)c3cc4c(cc3C2=O)C2(CCN(C3CCC5(CC3)CCN(c3ccc([C@@H]6c7ccc(O)cc7CC[C@@H]6c6ccccc6)cc3)CC5)CC2)CO4)C(=O)N1` (stereo partly drawn) [PROTAC 54, 6-(2,6-dioxopiperidin-3-yl)-1′-(3-(4-((1R,2S)-6-hydroxy-2-phenyl-1,2,3,4-tetralin-1-yl)phenyl)-3-azaspiro[5.5]undec-9-yl)-6-hydrogen-2H,5H-spiro[furo[2,3-f]isoindole-3,4′-piperidine]-5,7-dione] were, in that order, 68 nM and 170 nM.
As for `O=C1CCC(N2Cc3cc4c(cc3C2=O)CCC2(CN(C3CCC5(CC3)CN(c3ccc([C@@H]6c7ccc(O)cc7CC[C@@H]6c6ccccc6)cc3)C5)C2)O4)C(=O)N1` (stereo partly drawn) [PROTAC 55, 3-(1-(2-(4-((1R,2S)-6-hydroxy-2-phenyl-1,2,3,4-tetrahydronaphthalen-1-yl)phenyl)-2-azaspiro [3.5]non-7-yl)-6′-oxo-3′,4′,6′,8′-tetrahydro-7′H-spiro[azetidine-3,2′-pyrano[2,3-f]isoindol]-7′-yl)piperidine-2,6-dione], the half-maximal inhibitory concentration (IC50) in the experiment with T-47D cells was determined as 6.6 nM; in the experiment with MCF-7 cells it was 40 nM.
For `O=C1CCC(N2Cc3cc4c(cc3C2=O)CCC2(CN(C3CC5(CCN(c6ccc([C@@H]7c8ccc(O)cc8CC[C@@H]7c7ccccc7)cc6)CC5)C3)C2)O4)C(=O)N1` (stereo partly drawn) [PROTAC 56, 3-(1-(7-(4-((1R,2S)-6-hydroxy-2-phenyl-1,2,3,4-tetrahydronaphthalen-1-yl)phenyl)-7-azaspiro[3.5]non-2-yl)-6′-oxo-3′,4′,6′,8′-tetrahydro-7′H-spiro[azetidine-3,2′-pyrano[2,3-f]isoindol]-7′-yl)piperidine-2,6-dione], in that order: 1.6 nM and 70 nM.
For the compound `O=C1CCC(N2Cc3cc4c(cc3C2=O)CCC2(CCN(C3CC5(CCN(c6ccc([C@@H]7c8ccc(O)cc8CC[C@@H]7c7ccccc7)cc6)CC5)C3)CC2)O4)C(=O)N1` (stereo partly drawn) [PROTAC 57, 3-(1-(7-(4-((1R,2S)-6-hydroxy-2-phenyl-1,2,3,4-tetrahydronaphthalen-1-yl)phenyl)-7-nitrogenheterospiro[3.5]non-2-yl)-6′-oxo-3′,4′,6′,8′-tetrahydro-7′H-spiro[piperidin-4,2′-pyrano [2,3-f]isoindole]-7′-yl)piperidine-2,6-dione], the IC50 in the experiment with T-47D cells was 2 nM; with MCF-7 cells, 10 nM.
The like results for `O=C1CCC(N2Cc3cc4c(cc3C2=O)OCC2(CCN(C3CC5(CCN(c6ccc([C@@H]7c8ccc(O)cc8CC[C@@H]7c7ccccc7)cc6)CC5)C3)CC2)O4)C(=O)N1` (stereo partly drawn) [PROTAC 58, 3-(1-(7-(4-((1R,2S)-6-hydroxy-2-phenyl-1,2,3,4-tetrahydronaphthalen-1-yl)phenyl)-7-azaspiro [3.5]non-2-yl)-6′-oxo-6′,8′-dihydro-3′H,7′H-spiro[piperidine-4,2′-[1,4]dioxino[2,3-f]isoindol]-7′-yl)piperidine-2,6-dione] were, in that order, 1 nM and 20 nM.
